The values that follow come from patent US7030119B1, “Method for treating chronic pain using MEK inhibitors” (Warner-Lambert Company, priority 1999, dated 2006).

“Also recorded” adds a separate entry of the source. Structures can show the parent of a compound that is named as a salt. Where two headings read alike, the source gives them in different places.

Data set [1] has as its system CCI-induced static allodynia. In words: chronic constriction injury (CCI)-induced static allodynia (von Frey hairs) in rats. It counts as in vivo, rat. The following applies: Biological Example 3; intrathecal administration 30 μg.
For data set [2], the system named is CCI-induced static allodynia. The description is as above. The class given is in vivo, rat. The protocol: (§1) Male Sprague Dawley rats (250–300 g), obtained from Charles River, Margate, U.K.) were housed in groups of 3–6. All animals were kept under a 12 h light/dark cycle (lights on at 07 h 00 min) with food and water ad libitum. All experiments were carried out by an observer blind to drug treatments.
Animals were anaesthetised with 2% isoflurane 1:4 O2/N2O mixture maintained during surgery via a nose cone. The sciatic nerve was ligated as previously described by Bennett and Xie, 1988. Animals were placed on a homeothermic blanket for the duration of the procedure. After surgical preparation the common sciatic nerve was exposed at the middle of the thigh by blunt dissection through biceps femoris. Proximal to the sciatic trifurcation, about 7 mm of nerve was freed of adhering tissue and 4 ligatures (4-0 silk) were tied loosely around it with about 1 mm spacing. The incision was closed in layers and the wound treated with topical antibiotics.
(§2) PD 198306 and pregabalin were administered intrathecally in a volume of 10 μl using a 100 μl Hamilton syringe by exposing the spine of the rats under brief isoflurane anaesthesia. Injections were made into the intrathecal space between lumbar region 5–6 with a 10 mm long 27 gauge needle. Penetrations were judged successful if there was a tail flick response. The wound was sealed with an autoclip and rats appeared fully awake within 2–3 min following injection.
(§3) Mechanical hypersensitivity was measured using Semmes-Weinstein von Frey hairs (Stoelting, Ill., U.S.A.). Animals were placed into wire mesh bottom cages allowing access to the underside of their paws. Animals were habituated to this environment prior to the start of the experiment. Mechanical hypersensitivity was tested by touching the plantar surface of the animals right hind paw with von Frey hairs in ascending order of force (0.7, 1.2, 1.5, 2, 3.6, 5.5, 8.5, 11.8, 15.1 and 29 g) for up to 6 sec. Once a withdrawal response was established, the paw was re-tested, starting with the next descending von Frey hair until no response occurred. The highest force of 29 g lifted the paw as well as eliciting a response, thus represented the cut off point. The lowest amount of force required to elicit a response was recorded as the paw withdrawal threshold (PWT) in grams.
(§4) Static allodynia was assessed with von Frey hairs, before (baseline, BL) and 0.5 h, 1 h and 2 h after intrathecal or intraplantar administration of PD 198306 (1–30 μg, i.t.), vehicle (cremophor:ethanol:water, 1:1:8) or pregabalin (10 μg, i.t.). For oral administration experiments, static allodynia was assessed with von Frey hairs, before (baseline, BL) and 1 h after oral administration of PD 198306 (3–30 mg/kg, p.o.), vehicle (cremophor:ethanol:water, 1:1:8) or pregabalin (30 mg/kg, p.o.). Animals were administered again the same compounds on the following day, both in the morning and the afternoon. Static allodynia was assessed before and 1 h after the morning administration. In the afternoon static allodynia was assessed before, 1 h, 2 h and 3 h after administration for streptozocin treated animals. CCI animals were assessed before, 1 h and 2 h after administration
PD 198306 and pregabalin were synthesised at Parke-Davis (Ann Arbor, Mich., USA). PD 198306 was suspended in cremophor:ethanol:water (1:1:8) vehicle. Pregabalin was dissolved in water. Both compounds were administered orally, intrathecally or intraplantar in volumes of 1 ml/kg, 10 μl and 100 μl respectively. Streptozocin (Aldrich, UK) was dissolved in 0.9% w/v NaCl and administered intraperitoneally in a volume of 1 ml/kg.
Data were analysed using a Kruskall-Wallis ANOVA for non-parametric results, followed when significant by Mann-Whitney's t test vs vehicle group.
The animals and methods for developing chronic constriction injury in the rat, injecting test compounds, and evaluation of static allodynia were according to Example 2 above. […]

In data set [3] the test system is MEK. In words: binding affinity of MEK inhibitors. The following applies: affinity of the MEK inhibitors of Biological Example 3.
Data set [4] has as its system colon 26 cells. In words: colon 26 cells IC50. The following applies: Mus musculus. The class given is cell-based.
For data set [5], the system named is streptozocin-induced static allodynia. In words: streptozocin-induced static allodynia (von Frey hairs) in diabetic rats. The class given is in vivo, rat. The protocol: Male Sprague Dawley rats (250–300 g), obtained from Bantin and Kingman, (Hull, U.K.) were housed in groups of 3. All animals were kept under a 12 h light/dark cycle (lights on at 07 h 00 min) with food and water ad libitum. All experiments were carried out by an observer blind to drug treatments.
Diabetes was induced in rats by a single i.p. injection of streptozocin (50 mg/kg) as described previously (Courteix et al., 1993).
as §3
PD 198306 [N-Cyclopropylmethoxy-3,4,5-trifluoro-2-(4-iodo-2-methyl-phenylamino)-benzamide] and Cl-1008 (pregabalin) were synthesized at Parke-Davis (Ann Arbor, Mich., USA). PD 198306 was suspended in cremophor:ethanol:water (1:1:8) vehicle. Pregabalin was dissolved in water. Both compounds were administered orally. Streptozocin (Aldrich, UK) was dissolved in 0.9% w/v NaCl and administered intraperitoneally. Drug administrations were made in a volume of 1 ml/kg.
The static allodynia data were analysed using a Kruskall-Wallis ANOVA for non-parametric results, followed when significant by Mann-Whitney's t test.
Static allodynia was assessed with von Frey hairs, before (baseline, BL) and 1 h after oral administration of PD 198306 (30 mg/kg, p.o.), vehicle (cremophor:ethanol:water, 1:1:8) or pregabalin (30 mg/kg, p.o.) (test). Animals were administered again the same compounds on the following day, both in the morning and the afternoon. Static allodynia was assessed only before and 1 h after the afternoon administration, in order to minimise the habituation of the animals to the testing conditions. Animals treated with pregabalin received water in the morning administration, in order to avoid the potential development of tolerance to the compound with repeated administration.
as §1, §2
as §4, with “Static allodynia was assessed before and 1 h after the morning administration. In the afternoon static allodynia was assessed before, 1 h, 2 h and 3 h after administration for streptozocin treated animals. CCI animals were assessed before, 1 h and 2 h after administration” left out

Setting [6] is: Biological Example 3, intrathecal administration 30 μg.
Where [7] appears, read: Biological Example 1, single administration 30 mg/kg p.o., 1 h after administration.
Where [8] appears, read: Biological Example 2, single administration p.o. (pregabalin 30 mg/kg, PD 198306 3–30 mg/kg), 1 h after administration.
Setting [9] is: intraplantar administration 3 mg/100 μl.
Where [10] appears, read: intrathecal administration 1–30 μg.

With `O=C(NOCC1CC1)c1ccc(F)c(F)c1Nc1ccc(I)cc1Cl` [PD 184352], in data set [1], the “magnitude of the antiallodynic effect compared with 100 μg of pregabalin, CCI model” value is reported as “similar”. Further, in data set [2] (setting [6]), the “effect on static allodynia, CCI model” value is on record as “blocked the maintenance of static allodynia” and the “time for which the antiallodynic effect was evident post-injection, CCI model” value turned out to be 30 min. Also, the affinity in data set [3] came to 2 nM.
Consider `Cc1cc(I)ccc1Nc1c(C(=O)NOCC2CC2)cc2nc[nH]c2c1F` [PD 254552, 7-fluoro-6-(4-iodo-2-methyl-phenylamino)-1H-benzoimidazole-5-carboxylic acid cyclopropylmethoxy-amide], for which, in data set [2] (setting [6]), the “effect on static allodynia, CCI model” value is on record as “blocked the maintenance of static allodynia” and the “time for which the antiallodynic effect was evident post-injection, CCI model” value was 30 min. The compound also returned an affinity in data set [3] of 5 nM. Further, in data set [4] (read-out: colon 26 cells, 1 hour pretreatment, IC50), the IC50 was found to be 20 nM.
Take `CC(C)C[C@H](CN)CC(=O)O` [pregabalin]: the “effect on streptozocin-induced static allodynia” value in data set [5] (setting [7]) and in data set [5] (setting [8]) was “significantly blocked” throughout. Further, the “effect on CCI-induced static allodynia” value in data set [2] (single administration 30 mg/kg p.o., 1 h after administration) is recorded as “significantly blocked”.
`Cc1cc(I)ccc1Nc1c(C(=O)NOCC2CC2)cc2nc[nH]c2c1F` (as salt: salt) [PD 254552, 7-fluoro-6-(4-iodo-2-methyl-phenylamino)-1H-benzoimidazole-5-carboxylic acid cyclopropylmethoxy-amide] gave a melting point of 168 to 172 °C.
Turning to `Cc1cc(I)ccc1Nc1c(C(=O)NOCC2CC2)cc(F)c(F)c1F` [PD 198306, N-Cyclopropylmethoxy-3,4,5-trifluoro-2-(4-iodo-2-methyl-phenylamino)-benzamide], the “effect on streptozocin-induced static allodynia” value is listed as “significantly blocked” in data set [5] (Biological Example 1, 30 mg/kg p.o., 1 h after the third administration (twice more on the following day)); “had no effect” in data set [5] (setting [7]); “significantly blocked; also recorded: transient effect” in data set [5] (Biological Example 2, PD 198306 30 mg/kg p.o., after the third administration (3 doses over two days), 30 mg/kg); “had no effect” in data set [5] (setting [8]). Besides, in data set [5] (Biological Example 1, 30 mg/kg p.o., day after the third administration), the “persistence of the effect on streptozocin-induced static allodynia” value was “disappeared by the following day”. In addition, the “effect on static allodynia, streptozocin model” value in data set [5] (setting [9]) is “had no effect”; in data set [5] (intrathecal administration 30 μg) it was “significantly blocked; also recorded: totally blocked”; in data set [5] (setting [10]), “dose-dependently blocked”. In data set [5] (intrathecal administration), the “minimum effective dose (MED), static allodynia, streptozocin model” value was determined as 3 µg. Also, the “effect on static allodynia, CCI model” value in data set [2] (Biological Example 2, intrathecal administration 30 μg) was “significantly blocked; also recorded: totally blocked”; in data set [2] (setting [9]), “had no effect”; in data set [2] (setting [10]) it was “dose-dependently blocked”. In addition, the “minimum effective dose (MED), static allodynia, CCI model” value in data set [2] (intrathecal administration) turned out to be 10 µg. In addition, in data set [2] (single or multiple administration 3–30 mg/kg p.o.), the “effect on CCI-induced static allodynia” value is reported as “neither a single or multiple administration of PD 198306 (3–30 mg/kg, p.o) had any effect; also recorded: had no effect”.
With `Cc1cc(I)ccc1Nc1c(C(=O)O)cc2nc[nH]c2c1F` [PD 205293, 7-fluoro-6-(4-iodo-2-methyl-phenylamino)-1H-benzoimidazole-5-carboxylic acid], the melting point is 247 to 248 °C (dec.). In addition, the IC50 in data set [4] (read-out: colon 26 cells, IC50) is greater than 10000 nM.

By IC50 is commonly meant the concentration needed to halve the response being measured. In general, melting point refers to the temperature, or range, at which the solid turns liquid.
